The assay addresses T1, Alcaligenes faecalis Penicillin G acylase mutant B:L56K (Alcaligenes faecalis, UniProt O34142, L321K).
T1 construct: alpha 202 aa, beta 551 aa; recombinant, E. coli host
T1 sequence (O34142 27-228): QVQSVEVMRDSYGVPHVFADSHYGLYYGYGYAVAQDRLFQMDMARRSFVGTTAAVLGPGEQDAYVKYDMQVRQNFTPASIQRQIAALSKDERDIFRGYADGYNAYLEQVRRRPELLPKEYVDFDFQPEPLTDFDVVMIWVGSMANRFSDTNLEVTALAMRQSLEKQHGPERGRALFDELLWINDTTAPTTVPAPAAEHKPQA
T1 sequence (O34142 266-816 L321K): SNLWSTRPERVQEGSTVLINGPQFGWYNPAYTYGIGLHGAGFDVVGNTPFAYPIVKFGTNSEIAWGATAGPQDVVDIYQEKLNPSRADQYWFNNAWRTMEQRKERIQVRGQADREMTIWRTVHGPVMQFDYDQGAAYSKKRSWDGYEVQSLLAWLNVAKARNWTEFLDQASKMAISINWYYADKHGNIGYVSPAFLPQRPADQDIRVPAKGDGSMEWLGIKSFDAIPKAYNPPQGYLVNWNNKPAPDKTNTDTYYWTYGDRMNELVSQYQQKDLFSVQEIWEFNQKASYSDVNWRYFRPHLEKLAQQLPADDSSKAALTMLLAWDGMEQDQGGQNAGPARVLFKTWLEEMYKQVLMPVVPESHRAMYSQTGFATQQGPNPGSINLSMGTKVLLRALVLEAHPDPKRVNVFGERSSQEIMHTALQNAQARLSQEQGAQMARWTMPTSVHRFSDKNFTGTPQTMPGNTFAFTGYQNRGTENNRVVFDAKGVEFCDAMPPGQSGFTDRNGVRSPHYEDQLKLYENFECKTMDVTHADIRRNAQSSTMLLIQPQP
The experiment in a line: Deacylation kinetics and phenylacetic acid product inhibition, mutant B:L56K. It counts as biochemical. As to conditions: from progress curves of NIPAB deacylation, 25° C., 0.1 M NaH2PO4.H2O buffer pH 7.5, read-out: Ki Phenylacetic acid (inhibition constant, dissociation constant). The method, then: In order to determine enzymatic activity the acylases were incubated with substrate at room temperature in buffered solution. In case β-lactamase impurity was expected to be present in the enzyme preparations, 1.0 mM -lactamase inhibitor 6-bromo-penicillanic acid was added to the assay. The reactions were stopped by adding an excess PMSF. For some mutants which were less sensitive to PMSF inhibition, the reactions were stopped by adding 0.5 M HCl or 0.5 M acetic acid until the pH was between 3 and 4. When reactions were subsequently analysed by HPLC, the reactions were stopped by dilution with the correponding elution solvent (see table 1). […]
The composition of the reaction mixtures was determined by high-performanceliquid chromatography (HPLC)(table 1). Concentrations were determined by using standards of known concentration.
In a continuous assay Penicillin G acylase was assayed spectro-fotometrically with the chromogenic substrate NIPAB [6-nitro-3-phenylacetamido-benzoic acid]. The liberation of 3-amino-6-nitrobenzoic acid was monitored by measuring the extinction at 405 nm in a Kontron 610 kinetic spectrofotometer. […]
Initial rate measurements were performed with excess substrate over the enzyme. Catalytic parameters were derived from least-squares fitting of the measured initial rates plotted for various substrate concentrations according to the Michaelis-Menten equation. […]

What is called Ki is a measure of affinity in units of concentration, obtained from inhibition or displacement. On to `O=C(O)Cc1ccccc1` [phenylacetic acid], for which the inhibitory constant (Ki) was 115 µM.

Source of the values: patent US6033823A, “Mutated penicillin G acylase genes” (priority 1994, dated 2000).
